Assay results published in article PMC8464850, “Sulfonium Ligands of the α7 nAChR” (Molecules, 2021).
Counter-ions that a name gives are not always drawn.

Key:
pKa by titration = format: physicochemical; details: phenolic hydroxyl, data not shown for S9, S10, read-out: pKa
Text: One of the questions that emerges from the data is why aromatic sulfoniums as structurally similar as S5, S9, and S10 provide different responses when coapplied with TQS. Indeed, compounds S5 and S9 virtually overlap in their best docked poses (Supplementary Figure S1), but the α7 response of S9 and TQS was dramatically greater than that of S5 and TQS (p < 0.001, Table S1). The formation of cation–pi interactions is a key feature of the binding of nicotinic orthosteric ligands, and the electronic distribution of the cation can be compared qualitatively in a series of compounds using molecular electrostatic potentials (MEPs). Analysis of the MEPs shown in Figure 9 reveal that the substituents on the benzene ring can modulate the intensity of the positive charge on the sulfonium center. Compound S5, for instance, has two hydroxyl groups which are strongly electron donating, and in comparison to compound S9, which has only one hydroxyl group, the intensity of the positive charge is […]. Another factor may be that a lone pair on the ortho hydroxyl substituent is donating electron density through space to the neighboring sulfonium, redistributing its positive charge. Compound S10 also has an ortho hydroxyl group, but unlike compound S5, compound S10 also has a nitro group, which is a strong electron-withdrawing group that may offset the electron-donating impact of the ortho hydroxyl group. Inspection of the MEP surface shown in Figure 9 does indicate that, relative to S5, the S10 sulfonium bears greater positive electrostatic potential. Given that compounds such as para-nitrophenol are acidic, with a pKa of ~7 for the phenolic hydroxyl, we also considered whether the deprotonated forms of S5, S9, and S10 might be accessible at the pH of our experiments.
Thus, all three compounds have varying proportions of the phenolic OH in the phenoxide form at the pH of Ringers solution used in the experiments. […] Future work on analogs of these compounds may be focused on substituents that are non-ionizable, and thus preserve a positive molecular charge derived from the sulfonium center.

[1] = test system: α4β2 subtypes formed with concatamers; assay: Inhibition of ACh control peak-current responses of α4-containing nAChR formed with concatamers; format: cell-based, human; details: 100 µM compound, Figure 7B
Protocol: (§1) Although none of the other sulfonium compounds activated neuronal heteromeric receptors, several of them produced inhibition of ACh-evoked responses. Shown in Figure 7A are concentration-response studies for the compounds that were active antagonists of α3β4 nAChR (Table 3). Some compounds were also tested as antagonists of α4β2 subtypes formed with concatamers (Figure 7B).
Figure 7 Inhibition of heteromeric nAChR by sulfonium compounds. (A) Inhibition of α3β4 100 µM ACh-evoked peak currents by the co-application of the sulfonium compounds. Data are the averaged of six to eight oocytes (±SEM). […]
Solutions were applied from 96-well plates via disposable tips. […] The responses were calculated as both peak current amplitudes and net charge, as previously described. Data were collected at 50 Hz, filtered at 20 Hz for α7 receptors or filtered at 5 Hz for heteromeric nAChR, and analyzed by Clampfit (Molecular Devices, San Jose, CA, USA) and Excel (Microsoft, Redmond, WA, USA). Data were expressed as means ± SEM from at least four oocytes for each experiment and plotted with Kaleidagraph 4.5.2 (Abelbeck Software, Reading, PA, USA). Multi-cell averages were calculated for comparisons of complex responses. Averages of the normalized data were calculated for each of the 10,322 points in each of the 206.44 s traces (acquired at 50 Hz), as well as the standard errors for those averages.

α3β4 nAChR = target: T1, α3β4 nAChR (Homo sapiens, UniProt P30926+P32297); assay: Inhibition of α3β4 100 µM ACh-evoked peak currents; format: cell-based; details: co-application with 100 µM ACh, peak currents
T1 construct: expressed in transfected cells; host or cells: Xenopus laevis oocytes (injected RNA)
Protocol: as §1
Figure 7 Inhibition of heteromeric nAChR by sulfonium compounds. (A) Inhibition of α3β4 100 µM ACh-evoked peak currents by the co-application of the sulfonium compounds. Data are the averaged of six to eight oocytes (±SEM). To confirm the stability of the ACh responses, applications of ACh plus the sulfonium compounds were alternated with applications of ACh alone. (B) Inhibition of ACh control peak-current responses of α4-containing nAChR formed with concatamers by 100 µM of the sulfonium compounds indicated. Data are the average of six to eight oocytes (±SEM).
Experiments were conducted using OpusXpress 6000A (Molecular Devices, Union City, CA, USA). Both the voltage and current electrodes were filled with 3 M KCl. Oocytes were voltage-clamped at −60 mV at room temperature (24 °C). The oocytes were bath-perfused with Ringer’s solution (115 mM NaCl, 2.5 mM KCl, 1.8 mM CaCl2, 10 mM HEPES, and 1 μM atropine, pH 7.2) at 2 mL/min for α7 receptors, or 4 mL/min for heteromeric nAChR. To evaluate the effects of experimental compounds, responses were compared to control ACh-evoked responses, defined as the average of two initial applications of ACh made before test applications. ACh control concentrations were 60 µM for α7 receptors; 100 µM for α4(3)β2(2) and α3β4 receptors; 30 µM for α4β2α6β2β3 and muscle-type (αβ1εδ) receptors; and 10 µM for α4(3)β2(2) and α4(2)β2(2)α5 receptors.
Solutions were applied from 96-well plates via disposable tips. Drug applications were 12 s in duration, followed by 181 s washout periods for α7 receptors, or 6 s in duration followed by 301 s washout periods for heteromeric nAChR. The responses were calculated as both peak current amplitudes and net charge, as previously described. Data were collected at 50 Hz, filtered at 20 Hz for α7 receptors or filtered at 5 Hz for heteromeric nAChR, and analyzed by Clampfit (Molecular Devices, San Jose, CA, USA) and Excel (Microsoft, Redmond, WA, USA). Data were expressed as means ± SEM from at least four oocytes for each experiment and plotted with Kaleidagraph 4.5.2 (Abelbeck Software, Reading, PA, USA). Multi-cell averages were calculated for comparisons of complex responses. Averages of the normalized data were calculated for each of the 10,322 points in each of the 206.44 s traces (acquired at 50 Hz), as well as the standard errors for those averages.

T1 sequence (P32297 32-505): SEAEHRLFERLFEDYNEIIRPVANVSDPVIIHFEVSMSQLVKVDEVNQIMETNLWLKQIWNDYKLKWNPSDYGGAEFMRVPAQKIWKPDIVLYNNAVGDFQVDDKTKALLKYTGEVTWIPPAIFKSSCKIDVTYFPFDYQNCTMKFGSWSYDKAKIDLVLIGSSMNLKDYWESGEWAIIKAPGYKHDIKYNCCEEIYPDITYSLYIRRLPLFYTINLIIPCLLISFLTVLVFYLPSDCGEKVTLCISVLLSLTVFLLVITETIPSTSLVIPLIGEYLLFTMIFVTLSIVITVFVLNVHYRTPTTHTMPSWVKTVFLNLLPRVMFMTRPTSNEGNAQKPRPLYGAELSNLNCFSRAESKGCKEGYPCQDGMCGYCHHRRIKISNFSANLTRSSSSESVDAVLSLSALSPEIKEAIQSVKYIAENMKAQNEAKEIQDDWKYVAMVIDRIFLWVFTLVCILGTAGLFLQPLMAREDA
T1 sequence (P30926 22-498): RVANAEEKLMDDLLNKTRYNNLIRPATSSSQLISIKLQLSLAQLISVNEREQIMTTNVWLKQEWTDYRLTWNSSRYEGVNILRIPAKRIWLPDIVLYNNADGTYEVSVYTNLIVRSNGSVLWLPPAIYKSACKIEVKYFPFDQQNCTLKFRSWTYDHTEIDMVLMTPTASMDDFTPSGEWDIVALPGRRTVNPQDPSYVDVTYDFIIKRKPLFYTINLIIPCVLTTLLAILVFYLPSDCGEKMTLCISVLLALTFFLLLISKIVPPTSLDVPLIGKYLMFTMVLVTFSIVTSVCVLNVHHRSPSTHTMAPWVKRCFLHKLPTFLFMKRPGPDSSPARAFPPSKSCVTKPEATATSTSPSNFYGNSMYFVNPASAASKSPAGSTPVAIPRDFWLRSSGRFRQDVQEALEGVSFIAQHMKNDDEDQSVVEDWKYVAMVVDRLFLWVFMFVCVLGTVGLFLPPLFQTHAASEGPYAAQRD

Row | Structure (SMILES) | pKa (pKa by titration) | relative antagonist activity [1] | IC50 (α3β4 nAChR) [µM]
1 | C[S+](C)c1cc([N+](=O)[O-])ccc1O.[Br-] [Compound S10, (2-hydroxy-5-nitrophenyl)dimethylsulfonium bromide] | ~5 | least | –
2 | C[S+](C)c1ccc(O)cc1 [Compound S9, (4-hydroxyphenyl)dimethylsulfonium methyl sulfate] | ~7.3 | – | 124 ± 22
